Measurements taken from PMC12550625, “A Potent Oral Sialylation Inhibitor Augments the Immunotherapy in Pancreatic Ductal Adenocarcinoma” (ACS Central Science, 2025).

Columns and labels:
[1] = biological target: T1, ST3Gal1 (Sus scrofa, UniProt Q02745); assay: SPR (CM5 chip, immobilized purified ST3Gal1); format: binding
T1 construct: Δ45, N-terminal 6xHis-MBP fusion
T1 sequence (Q02745 46-343): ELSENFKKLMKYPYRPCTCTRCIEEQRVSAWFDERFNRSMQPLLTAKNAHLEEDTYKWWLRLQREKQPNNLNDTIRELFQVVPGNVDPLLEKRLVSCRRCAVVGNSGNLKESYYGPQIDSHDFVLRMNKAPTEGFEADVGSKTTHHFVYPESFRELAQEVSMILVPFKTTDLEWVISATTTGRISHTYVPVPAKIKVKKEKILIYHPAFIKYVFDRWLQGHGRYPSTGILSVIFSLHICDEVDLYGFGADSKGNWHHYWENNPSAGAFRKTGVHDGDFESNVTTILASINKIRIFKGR

[2] = biological target: T2, ST6Gal1 (Homo sapiens, UniProt P15907); assay: SPR (CM5 chip, immobilized purified ST6Gal1); format: binding
T2 construct: Δ131, 3xFLAG
T2 sequence (P15907 132-406): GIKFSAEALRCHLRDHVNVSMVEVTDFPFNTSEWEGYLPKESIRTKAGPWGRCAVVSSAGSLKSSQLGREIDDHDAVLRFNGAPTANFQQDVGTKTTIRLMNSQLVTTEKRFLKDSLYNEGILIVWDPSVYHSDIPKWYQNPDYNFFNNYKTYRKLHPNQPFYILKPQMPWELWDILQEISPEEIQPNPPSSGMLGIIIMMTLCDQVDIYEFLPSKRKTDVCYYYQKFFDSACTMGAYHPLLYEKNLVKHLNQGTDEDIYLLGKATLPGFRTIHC
From the text: SPR (CM5 chip, immobilized purified ST6Gal1) on ST6Gal1 | Pull-down and SPR analyses confirmed that Y-320 binds to ST6Gal1 with high affinity

Cc1c(C(=O)Nc2ccc(N3CCC(N4CCOCC4)CC3)c(C#N)c2)cnn1-c1ccc(Cl)cc1 [Y-320]
Kd [1]: 709 nM | Kd [2]: 885 nM
